The record followed here is US4119722A, “Method for control of fungi using 4-halo-5-aryl-1,2,3,-dithiazoles” (Chevron Research Company, priority 1977, dated 1978).

For one data set, the system named is Fusarium moniloforma. Description: Mycelia Inhibition. It counts as cell-based. The conditions noted are these: 25° C., 24 hours. The method, then: (§1) The compounds of the present invention were evaluated for fungicidal effectiveness by means of a mycelial inhibition test. This test is designed to measure the fungitoxic acitvity of fungicidal chemicals in terms of their degree of inhibition of mycelium growth. Each compound to be tested was dissolved in acetone to 500 ppm concentration. Paper strips were innoculated with the particular mycelium growth by covering the paper with a potato dextrose broth culture of mycelial suspension. The innoculated papers were then placed on potato dextrose agar plates and sprayed by means of a micro sprayer with the fungicidal solution. The treated paper strips were incubated at 25° C. and data is taken after 24 hours. Fungicidal activities are measured by a zone of inhibited mycelial growth from the center of the paper strip. The effectiveness of the compounds tested for fungicidal activity is reported in Table VI in terms of the microgram/cm^2 for 99% control of the fungus.

The subject of a further data set is Botrytis cinerea. The data set can be described thus: Mycelia Inhibition. Format: cell-based. To be noted: 25° C., 24 hours. The method, then:
as §1

The next data set deals with Rhizoctonia solani. The data set can be described thus: Mycelia Inhibition. The conditions noted are these: 25° C., 24 hours. Format: cell-based. The method, then: as §1
A further data set has as its system Aspergillus niger. The data set can be described thus: Mycelia Inhibition. It counts as cell-based. To be noted: 25° C., 24 hours. The method, then:
as §1

The test system of data set [1] is Lambsquarter (Chenopodium album). The data set can be described thus: Post-emergent herbicidal test. Format: in vivo. To be noted: post-emergence, 504 h, 33 mcg/cm^2, 3 weeks, scale 0 (no phytotoxicity) to 100 (complete kill), read-out: Herbicidal Effectiveness (P). The protocol:
(§2) Post-emergent herbicidal tests with representative compounds of this invention were made using the following method.
(§3) An acetone solution of the test compound was prepared by mixing 750 mg of the compound, 220 mg of a nonionic surfactant and 25 ml of acetone. This solution was added to approximately 125 ml of water containing 156 mg of surfactant.
(§4) This test solution was uniformly sprayed on 2 similar pots of 24-day-old plants (approximately 15 to 25 plants per pot) at a dose of 33 mcg/cm^2. After the plants had dried, they were placed in a greenhouse and then watered intermittently at their bases, as needed. The plants were observed periodically for phytotoxic effects and physiological and morphological responses to the treatment. After 3 weeks, the herbicidal effectiveness of the compound was rated based on these observations. A 0-to-100 scale was used, 0 representing no phytotoxicity and 100 representing complete kill.

Data set [2] concerns Pigweed (Amaranthus retroflexus). The data set can be described thus: Post-emergent herbicidal test. Format: in vivo. The conditions noted are these: post-emergence, 504 h, 33 mcg/cm^2, 3 weeks, scale 0 (no phytotoxicity) to 100 (complete kill), read-out: Herbicidal Effectiveness. The protocol: as §2, §3, §4
The subject of another data set is Wild Oats (Avena fatua). Description: Post-emergent herbicidal test. It counts as in vivo. The conditions noted are these: post-emergence, 504 h, 33 mcg/cm^2, 3 weeks, scale 0 (no phytotoxicity) to 100 (complete kill), read-out: Herbicidal Effectiveness (O). The method, then:
as §2, §3, §4

For data set [3], the system named is Crabgrass (Digitaria sanguinalis). Description: Post-emergent herbicidal test. It counts as in vivo. The conditions noted are these: post-emergence, 504 h, 33 mcg/cm^2, 3 weeks, scale 0 (no phytotoxicity) to 100 (complete kill), read-out: Herbicidal Effectiveness (C). The method, then: as §2, §3, §4
Data set [4] relates to Mustard (Brassica arvensis). The data set can be described thus: Post-emergent herbicidal test. The conditions noted are these: post-emergence, 504 h, 33 mcg/cm^2, 3 weeks, scale 0 (no phytotoxicity) to 100 (complete kill), read-out: Herbicidal Effectiveness (L). Format: in vivo. The method, then:
as §2, §3, §4

Data set [5] has as its system Watergrass (Echinochloa Crusgalli). The data set can be described thus: Post-emergent herbicidal test. The conditions noted are these: Echinochloa crus-galli, post-emergence, 504 h, 33 mcg/cm^2, 3 weeks, scale 0 (no phytotoxicity) to 100 (complete kill), read-out: Herbicidal Effectiveness (W). Format: in vivo. The protocol:
as §2, §3, §4

Data set [6] relates to two spotted-mites (Tetramuchus urticae). The data set can be described thus: Mite control test, adult mites. It counts as in vivo. The conditions noted are these: 40-ppm leaf dip, adult mortality one day after treatment; 1440 min. The protocol: (§5) Compounds of the invention were tested for the control mites and mite eggs by the following procedure. Pinto bean leaves were invested with two spotted-mites (Tetramuchus urticae). The mites were then allowed to lay eggs on the leaves. After 48 hours, the leaves were dipped into a water/acetone solution containing a small amount of a non-ionic surfactant and 40-ppm of the test compound. The treated leaves were then maintained at 85° F. One day after treatment, the mortality of adult mites was determined, and 7 days after treatment, the egg mortality (non-hatching eggs) was determined.

Data set [7] relates to mite eggs (Tetramuchus urticae). The data set can be described thus: Mite control test, mite eggs. Format: in vivo. To be noted: 40-ppm leaf dip, egg mortality (non-hatching eggs) 7 days after treatment. The method, then:
as §5

A further data set concerns Phytophthora infestans. The data set can be described thus: whole plant or invertebrate. Format: in vivo. The conditions noted are these: in Solanum lycopersicum, 168 h, read-out: Tomato Late Blight, % Control.

For `Clc1nssc1=Nc1ccccc1` [Compound 1, 4-chloro-5-phenylimino-1,2,3-dithiazole], the “Mycelia Inhibition, for 99% control (F)” value in the data set with Fusarium moniloforma is on record as more than 1.7 micrograms/cm^2. In addition, the “Mycelia Inhibition, for 99% control (B)” value in the data set with Botrytis cinerea came to 0.33 micrograms/cm^2. In the data set on Rhizoctonia solani, the “Mycelia Inhibition, for 99% control (R)” value is on record as more than 1.7 micrograms/cm^2. Besides, the “Mycelia Inhibition, for 99% control (A)” value with Aspergillus niger is on record as more than 1.7 micrograms/cm^2. In addition, the pest or weed control at 33 µg/cm2 in data set [1] turned out to be 70%; in data set [2] it was 85%; in the data set with Wild Oats (Avena fatua) it was 0%; in data set [3], 20%; in [4], 80%; in [5], 10%.
On to `Clc1ccc(N=c2ssnc2Cl)cc1` [Compound 2], for which the “Mycelia Inhibition, for 99% control (F)” value with Fusarium moniloforma came out at 1.5 micrograms/cm^2. The “Mycelia Inhibition, for 99% control (R)” value with Rhizoctonia solani was determined as 0.33 micrograms/cm^2. In the data set on Aspergillus niger, the “Mycelia Inhibition, for 99% control (A)” value is on record as 0.85 micrograms/cm^2. Moreover, the pest or weed control at 33 µg/cm2 in data set [1] turned out to be 95%; in data set [2], 100%; in the data set with Wild Oats (Avena fatua), 15%; in data set [3], 20%; in data set [4], 95%; in data set [5], 85%.
`Clc1ccc(N=c2ssnc2Cl)cc1Cl` [Compound 5, 4-chloro-5-(3,4-dichlorophenylimino)-1,2,3-dithiazole]: in the data set with Fusarium moniloforma, the “Mycelia Inhibition, for 99% control (F)” value is recorded as more than 1.7 micrograms/cm^2. The “Mycelia Inhibition, for 99% control (R)” value with Rhizoctonia solani is on record as more than 1.7 micrograms/cm^2. Also, the “Mycelia Inhibition, for 99% control (A)” value with Aspergillus niger turned out to be 1.1 micrograms/cm^2. For the same molecule, the pest or weed control at 33 µg/cm2 in data set [1] was 100%; in [2], 100%; in the data set on Wild Oats (Avena fatua) it was 35%; in data set [3], 30%; in [4], 100%; in data set [5], 55%. Besides, the “Mite Control, %” value in data set [6] amounted to 99%. Moreover, the “Mite Eggs Control, %” value in [7] amounted to 100%.
On to `Cc1ccccc1N=c1ssnc1Cl` [Compound 7], for which the “Mycelia Inhibition, for 99% control (F)” value with Fusarium moniloforma was more than 1.7 micrograms/cm^2. Moreover, the “Mycelia Inhibition, for 99% control (B)” value in the data set on Botrytis cinerea is listed as more than 1.7 micrograms/cm^2. In addition, the “Mycelia Inhibition, for 99% control (R)” value in the data set with Rhizoctonia solani is on record as more than 1.7 micrograms/cm^2. In addition, in the data set on Aspergillus niger, the “Mycelia Inhibition, for 99% control (A)” value is 0.98 micrograms/cm^2. Further, the pest or weed control at 33 µg/cm2 stood at 70% in data set [1]; 70% in [2]; 0% in the data set with Wild Oats (Avena fatua); 0% in data set [3]; 60% in data set [4]; 0% in data set [5].
`O=[N+]([O-])c1cccc(N=c2ssnc2Cl)c1` [Compound 8]: in the data set on Phytophthora infestans, the pest or weed control at 250 µg/mL was 44%. The “Mycelia Inhibition, for 99% control (F)” value with Fusarium moniloforma is given as more than 1.7 micrograms/cm^2. For the same molecule, the “Mycelia Inhibition, for 99% control (B)” value in the data set on Botrytis cinerea worked out at 1.3 micrograms/cm^2. In the data set on Rhizoctonia solani, the “Mycelia Inhibition, for 99% control (R)” value is reported as more than 1.7 micrograms/cm^2. In addition, the “Mycelia Inhibition, for 99% control (A)” value with Aspergillus niger is more than 1.7 micrograms/cm^2. Besides, the pest or weed control at 33 µg/cm2 in data set [1] was determined as 40%; in [2], 30%; in the data set with Wild Oats (Avena fatua), 0%; in data set [3], 0%; in data set [4], 35%; in data set [5], 0%.
Turning to `Cc1cccc(C)c1N=c1ssnc1Cl` [Compound 10], the pest or weed control at 33 µg/cm2 stood at 30% in data set [1]; 60% in data set [2]; 0% in the data set on Wild Oats (Avena fatua); 0% in [3]; 75% in data set [4]; 0% in data set [5].
Turning to `Cc1cc(C)c(N=c2ssnc2Cl)c(C)c1` [Compound 11], in the data set on Fusarium moniloforma, the “Mycelia Inhibition, for 99% control (F)” value is recorded as more than 1.7 micrograms/cm^2. Moreover, the “Mycelia Inhibition, for 99% control (B)” value with Botrytis cinerea is listed as more than 1.7 micrograms/cm^2. Moreover, the “Mycelia Inhibition, for 99% control (R)” value with Rhizoctonia solani is listed as 0.98 micrograms/cm^2. Besides, the “Mycelia Inhibition, for 99% control (A)” value with Aspergillus niger is more than 1.7 micrograms/cm^2.
On to `Clc1nssc1=Nc1cccc(Br)c1` [Compound 12], for which the “Mycelia Inhibition, for 99% control (F)” value in the data set with Fusarium moniloforma was more than 1.7 micrograms/cm^2. The “Mycelia Inhibition, for 99% control (B)” value in the data set with Botrytis cinerea is reported as more than 1.7 micrograms/cm^2. In the data set with Rhizoctonia solani, the “Mycelia Inhibition, for 99% control (R)” value is given as 1.4 micrograms/cm^2. The “Mycelia Inhibition, for 99% control (A)” value with Aspergillus niger is given as more than 1.7 micrograms/cm^2. For the same molecule, the pest or weed control at 33 µg/cm2 in data set [1] was determined as 55%; in data set [2] it was 85%; with Wild Oats (Avena fatua), 30%; in data set [3] it was 30%; in [4] it was 100%; in data set [5] it was 30%. Besides, the “Mite Eggs Control, %” value in data set [7] is given as 78%.
Regarding `Clc1ccccc1N=c1ssnc1Cl` [Compound 14], the pest or weed control at 33 µg/cm2 in data set [1] amounted to 100%; in [2] it was 93%; with Wild Oats (Avena fatua), 0%; in data set [3], 30%; in data set [4], 100%; in [5], 40%. For the same molecule, the “Mite Control, %” value in data set [6] is 70%. The “Mite Eggs Control, %” value in data set [7] came to 0%.
As for `Clc1nssc1=Nc1ccc2ccccc2c1` [Compound 16], the pest or weed control at 250 µg/mL in the data set on Phytophthora infestans turned out to be 73%. Further, the pest or weed control at 33 µg/cm2 was found to be 70% in data set [1]; 85% in data set [2]; 0% in the data set with Wild Oats (Avena fatua); 20% in data set [3]; 100% in data set [4]; 90% in data set [5].
Take `Fc1ccc(N=c2ssnc2Cl)cc1` [Compound 24]: the pest or weed control at 33 µg/cm2 in data set [1] came out at 70%; in data set [2], 70%; in the data set on Wild Oats (Avena fatua), 40%; in data set [3] it was 60%; in data set [4], 100%; in data set [5], 60%.
For `Cc1ccc(N=c2ssnc2Cl)cc1` [Compound 25], in the data set with Fusarium moniloforma, the “Mycelia Inhibition, for 99% control (F)” value is reported as more than 1.7 micrograms/cm^2. Further, the “Mycelia Inhibition, for 99% control (B)” value with Botrytis cinerea is given as 0.76 micrograms/cm^2. Also, the “Mycelia Inhibition, for 99% control (R)” value in the data set on Rhizoctonia solani is 0.92 micrograms/cm^2. Besides, the “Mycelia Inhibition, for 99% control (A)” value with Aspergillus niger came to 1.5 micrograms/cm^2. Besides, the pest or weed control at 33 µg/cm2 in data set [1] stood at 45%; in [2], 90%; in the data set on Wild Oats (Avena fatua), 30%; in [3] it was 35%; in [4], 100%; in data set [5], 55%.
For `Oc1c(Cl)cc(N=c2ssnc2Cl)cc1Cl` [Compound 26], the “Mycelia Inhibition, for 99% control (F)” value with Fusarium moniloforma is more than 1.7 micrograms/cm^2. For the same molecule, the “Mycelia Inhibition, for 99% control (B)” value in the data set on Botrytis cinerea is recorded as more than 1.7 micrograms/cm^2. In addition, the “Mycelia Inhibition, for 99% control (R)” value in the data set with Rhizoctonia solani is on record as 1.3 micrograms/cm^2. For the same molecule, the “Mycelia Inhibition, for 99% control (A)” value in the data set on Aspergillus niger is more than 1.7 micrograms/cm^2.
